{
  "source": "patent US6974835B2",
  "about": "“Methods for decreasing cell proliferation based on (3r,4r)-Δ8-tetrahydrocannabinol-11-oic acids” (Indevus Pharmaceuticals, Inc., priority 2000, dated 2005)",
  "key": {"C6 glioma cells [1]": {"tested_on": "C6 glioma cells", "assay": "Co-incubation with a CB1 antagonist, cell proliferation", "format": "cell-based", "conditions": "3.2 μM of a specific CB1 antagonist"}, "WI38 cells": {"tested_on": "WI38 cells", "assay": "Phase microscopy for refractile bodies, WI38", "format": "cell-based, rat", "conditions": "48 hours, same dosage"}, "C6 cells": {"tested_on": "C6 cells", "assay": "Lipid incorporation assay", "format": "cell-based", "conditions": "25 μM, 14C-labeled arachidonic acid, 48 hours; for neutral lipids, increase above basal levels: FIG. 3"}, "Protein kinase C (PKC)": {"tested_on": "Protein kinase C (PKC)", "assay": "Protein kinase C (PKC) assay", "format": "cell-based", "conditions": "C6 cells, 25 μM, for one hour", "procedure": "Protein kinase C (PKC) assay. Cells were transferred into MEM media (0.5% serum) and cultured overnight. The next day, cells were treated with either DMSO or 25 μM ajulemic acid for the specified incubation time, after which the plates were trypsinized. 5×10^6 trypsinized cells were assayed for PKC activity using a kit (Calbiochem, cat. no. 53984)."}, "[2]": {"tested_on": "human glioma cell line U87 injected subcutaneously in nude mice", "assay": "In vivo subcutaneous model", "conditions": "0.1 mg/kg thrice weekly, FIG. 4", "procedure": "In vivo subcutaneous model. 10^6 U87 cells were injected into the right flank muscle of male nu/nu BALBc mice (Charles River). Two days after inoculation, the mice received either 0.1 mg/kg ajulemic acid in 0.05 ml of safflower oil or 0.05 ml safflower oil by oral administration. Thereafter, identical dosings were performed on each Monday, Wednesday, and Friday. When visible tumors appeared, the size of the tumors were estimated by averaging the values of two roughly perpendicular diameters measurements. Visible tumors were measured on the days of drug administration."}, "C6 glioma cells [3]": {"tested_on": "C6 glioma cells", "assay": "Viability by trypan blue exclusion"}, "C6 glioma cells [4]": {"tested_on": "C6 glioma cells", "assay": "Microscopy of treated cells (cell size, refractile bodies, electron microscopy)"}, "tumor cells": {"tested_on": "tumor cells", "assay": "Stereospecificity of inhibition of cell proliferation (D-isomer vs L-isomer)", "format": "cell-based", "conditions": "25 μM dose, FIG. 2, p<0.001"}, "U87": {"tested_on": "U87", "assay": "48 hour MTT assay, U87", "conditions": "U87 (Brain), 25 μM"}, "J82": {"tested_on": "J82", "assay": "48 hour MTT assay, J82", "conditions": "J82 (Bladder), 25 μM"}, "PC3": {"tested_on": "PC3", "assay": "48 hour MTT assay, PC3", "conditions": "PC3 (Prostate), 25 μM"}, "U373": {"tested_on": "U373", "assay": "48 hour MTT assay, U373", "conditions": "U373 (Brain), 25 μM"}, "Du145": {"tested_on": "Du145", "assay": "48 hour MTT assay, Du145", "conditions": "Du145 (Prostate), 25 μM"}, "HS578T": {"tested_on": "HS578T", "assay": "48 hour MTT assay, HS578T", "conditions": "HS578T (Breast), 25 μM"}, "[5]": {"tested_on": "human cell lines derived from a variety of cancer types (brain, breast, bladder, lung, and prostate)", "assay": "48 hour MTT assay, mean over the human cancer cell lines", "conditions": "25 μM, mean of the ten lines of Table 1"}},
  "data": [
    {"compound": "CCCCCCC(C)(C)c1cc(O)c2c(c1)OC(C)(C)[C@@H]1CC=C(C(=O)O)C[C@@H]21", "note": "[ajulemic acid, 1′,1′-dimethylheptyl-Δ^8-THC-11-oic acid]", "values": [
      {"measurement": "change in potency on co-incubation with CB1 antagonist", "setting": "C6 glioma cells [1]", "value": "slight potentiation"},
      {"measurement": "refractile bodies noted (in words)", "setting": "WI38 cells", "value": "no refractile bodies were noted"},
      {"measurement": "content of tri- and di-glyceride versus controls", "setting": "C6 cells", "value": "over three-fold greater than in controls"},
      {"measurement": "neutral lipids, increase above basal levels", "setting": "C6 cells", "value": "significant increase above basal levels"},
      {"measurement": "PKC activity versus control", "setting": "Protein kinase C (PKC)", "value": "approximately two-fold above that of control"},
      {"measurement": "appearance and size of tumors (in words)", "setting": "[2]", "value": "delay in both the appearance and size of tumors"},
      {"measurement": "viability rate", "setting": "C6 glioma cells [3]", "value": "> 95", "unit": "%"},
      {"measurement": "cell size", "setting": "C6 glioma cells [4]; after 48 hours of exposure", "value": "marked increase in cell size"},
      {"measurement": "appearance under electron microscopy", "setting": "C6 glioma cells [4]; treated cells", "value": "neither apoptotic nor necrotic"}
    ]},
    {"compound": "CCCCCCC(C)(C)c1cc(O)c2c(c1)OC(C)(C)[C@@H]1CC=C(C(=O)O)C[C@@H]21", "note": "(single isomer, unassigned) [D-isomer of ajulemic acid]", "values": [
      {"measurement": "potency of D-isomer compared to the L-isomer of ajulemic acid", "setting": "tumor cells", "value": "marked decrease in the potency"}
    ]},
    {"compound": "CCCCCc1cc(O)c2c(c1)OC(C)(C)[C@@H]1CC=C(C(=O)O)C[C@@H]21", "note": "[THC-11-oic acid]", "values": [
      {"measurement": "neutral lipids, increase above basal levels", "setting": "C6 cells", "value": "significant increase above basal levels was only noted for ajulemic acid"},
      {"measurement": "Percent inhibition of human cancer cell line growth", "setting": "U87", "value": "5 ± 1", "unit": "%"},
      {"measurement": "Percent inhibition of human cancer cell line growth", "setting": "J82", "value": "1 ± 1", "unit": "%"},
      {"measurement": "Percent inhibition of human cancer cell line growth", "setting": "PC3", "value": "1 ± 1", "unit": "%"},
      {"measurement": "Percent inhibition of human cancer cell line growth", "setting": "U373", "value": 0, "unit": "%"},
      {"measurement": "Percent inhibition of human cancer cell line growth", "setting": "Du145", "value": "7 ± 3", "unit": "%"},
      {"measurement": "Percent inhibition of human cancer cell line growth", "setting": "HS578T", "value": "2 ± 1", "unit": "%"},
      {"measurement": "inhibition levels (mean±SD) over the human cell lines", "setting": "[5]", "value": "13.1±18.5", "unit": "%"},
      {"measurement": "refractile bodies noted (in words)", "setting": "C6 glioma cells [4]; C6 glioma cells, 25 μM, 48 hours", "value": "no refractile bodies were noted"}
    ]},
    {"compound": "CCCCCc1cc(O)c2c(c1)OC(C)(C)[C@@H]1CCC(C)=C[C@@H]21", "note": "[Δ^9-THC, tetrahydrocannabinol]", "values": [
      {"measurement": "change in potency on co-incubation with CB1 antagonist", "setting": "C6 glioma cells [1]", "value": 150, "unit": "%"},
      {"measurement": "neutral lipids, increase above basal levels", "setting": "C6 cells", "value": "significant increase above basal levels was only noted for ajulemic acid"}
    ]}
  ]
}
